Reference: patent publication US10463713B2, “Use of AAC-11 inhibitors for the treatment of viral infection” (INSERM (Institut National de la Sante et de la Recherche …, priority 2016, dated 2019)

What was measured:
HIV-1BX08 = type: cell-based; settings: increasing amounts of peptide, three days, primary strain HIV-1BX08, human CD4+ T cells (FIG. 4A bottom panel)
HIV-1 BaL [1] = type: cell-based; settings: three days; for HIV-1 replication (p24 antigen in supernatants) / elimination of HIV infected CD4+ T cells: 6 μM peptide, HIV-1 BaL, CD4+ T cells (FIG. 3); for HIV-1 replication (p24 antigen in supernatants) / elimination of HIV infected human CD4+ T cells: increasing amounts of peptide, HIV-1BaL, human CD4+ T cells (FIG. 4A upper panel)
SIVmac251 = type: cell-based, SIVmac; settings: increasing amounts of peptide, three days, macaque CD4+ T cells (FIG. 4B)
VSV-G HIV-1-particles = type: cell-based
cancer cells = assay: Annexin-V/PI cell death of cancer cell lines under low-serum stress; type: cell-based; settings: 24 hours, increasing concentrations (FIG. 1)
Procedure: (§1) The indicated cell lines or blood cells from healthy donors were treated for 24 hours in a 37° C. incubator (5% CO2) with increasing concentrations of the Antp-AAC-11-LZ (377-399) before Annexin-V and PI staining. The percentages refer to Annexin-V-positive or Annexin-V-positive/PI-positive staining.
(§2) Detection of phosphatidylserine on apoptotic cells was performed by using an AnnexinV/propidium iodide (PI) detection kit (Beckman Coulter, Immunotech, Marseille, France) according to the manufacturer. Briefly, 5×10^5 cells were incubated in the dark at 4° C. with Annexin V-fluorescein isothiocyanate (FITC) and 2.5 μg/mL PI in phosphate buffer for 10 minutes before 18 000 ungated events were collected within the hour by flow cytometry (FACScalibur, BD Biosciences, Mansfield, Mass.) and analyzed with the ProCellQuest software provided by the manufacturer. In HIV-1 infection assays (see below), cell viability was determined with the help of LIVE/DEAD® Fixable Aqua stain kit as recommended by the manufacturer (Molecular Probes, Life Technologies, Saint Aubin, France).

[2] = tested on: normal cells (blood cells from healthy donors); assay: Annexin-V/PI cell death of normal cells / blood cells from healthy donors under low-serum stress; type: cell-based; settings: 24 hours, increasing concentrations, blood cells from healthy donors (FIG. 1)
Procedure: as §1, §2

HIV-1 BaL [3] = type: cell-based; settings: 4 or 8 μM; added 10 minutes before infection and washed after two hours, or added two hours after infection and kept three days (FIG. 6)

| Substance | HIV-1 replication (p24 antigen in supernatants) / elimination of HIV infected human CD4+ T cells (HIV-1BX08) | HIV-1 replication (p24 antigen in supernatants) / elimination of HIV infected CD4+ T cells (HIV-1 BaL [1]) | HIV-1 replication (p24 antigen in supernatants) / elimination of HIV infected human CD4+ T cells (HIV-1 BaL [1]) | SIVmac251 replication (p27 antigen in supernatants) / elimination of SIVmac infected macaque CD4+ T cells (SIVmac251) | percentage of GFP+ (infected) cells and of viable cells / elimination of HIV infected CD4+ T cells (VSV-G HIV-1-particles) | cell death (Annexin-V-positive or Annexin-V-positive/PI-positive staining) of cancer cells (cancer cells) | cell death (Annexin-V-positive or Annexin-V-positive/PI-positive staining) of normal cells [2] | HIV-1 infection of human macrophages (HIV-1 BaL [3]) |
| --- | --- | --- | --- | --- | --- | --- | --- | --- |
| Ac-RQIKIWFKKQNRRMKWKKLQYFARGLQVYIRQLRLALQGKT-NH2 [RT39] | induce the selective elimination | induce the selective elimination | induce the selective elimination | induce the selective elimination | induce the selective elimination | induced cancer cells | but not normal cells | – |
| RQIKIWFKKQNRRMKWKKYFARGLQVYIRQL (Synthetic Antp-AAC-11-LZ (379-391) (RL29)) | – | induce the selective elimination | – | – | – | – | – | – |
| RQIKIWFKKQNRRMKWKKAKLNAEKLKDFKIRLQYFARGLQVYIRQLRLALQGKT (Synthetic Antp-AAC-11-LZ (363-399) (RT53)) | induce the selective elimination | induce the selective elimination | induce the selective elimination | induce the selective elimination | induce the selective elimination | – | – | block HIV-1 infection in human macrophages |
